The record followed here is patent US20230278972A1, “SUBSTITUTED HALOALKYL SULFONANILIDE HERBICIDES” (FMC Corporation, priority 2020, published 2023).

Common to all, as to assay type: in vivo
For test [1], the system named is wheat (Triticum aestivum). Description: Test A postemergence, wheat. As to conditions: Postemergence, 0 to 100 scale (0 no effect, 100 complete control). Summed up:
(§1)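 Greenhouse pot test in a loam–sand blend; compounds delivered in a non-phytotoxic solvent carrying a surfactant, applied either as a directed spray to soil at seeding or over seedlings 2 to 10 cm high with one to two leaves.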

Test [2] deals with pigweed (Amaranthus retroflexus). Description: Test A postemergence, pigweed. As to conditions: Postemergence, 0 to 100 scale (0 no effect, 100 complete control). Summed up:
(§2)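 Test chemicals, formulated in a non-phytotoxic solvent mixture with surfactant, were sprayed postemergence on plants 2 to 10 cm tall at the one- to two-leaf stage. Preemergence treatment was a directed soil spray onto freshly seeded pots. Both used a loam soil and sand blend.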

Test [3] has as its system barnyardgrass (Echinochloa crus-galli). Description: Test A postemergence, barnyardgrass. As to conditions: Postemergence, 0 to 100 scale (0 no effect, 100 complete control). Summed up:
as §1

Test [4] has as its system galium (catchweed bedstraw, Galium aparine). The experiment in a line: Test A postemergence, galium. The note with it: Postemergence, 0 to 100 scale (0 no effect, 100 complete control). Summed up:
as §1

The subject of test [5] is kochia (Bassia scoparia). The experiment in a line: Test A preemergence, kochia. The note with it: Preemergence; for Plant response rating, Kochia: 0 to 100 scale (0 no effect, 100 complete control). The procedure, abridged: as §2
Test [6] has as its system kochia (Bassia scoparia). The experiment in a line: Test A postemergence, kochia. As to conditions: Postemergence, 0 to 100 scale (0 no effect, 100 complete control). Summed up: as §2
Test [7] relates to Foxtail, Giant (giant foxtail, Setaria faberi). The experiment in a line: Test A postemergence, Foxtail, Giant. As to conditions: Postemergence, 0 to 100 scale (0 no effect, 100 complete control). The procedure, abridged: as §2
Test [8] deals with barnyardgrass (Echinochloa crus-galli). Description: Test A preemergence, barnyardgrass. As to conditions: Preemergence; for Plant response rating, Barnyardgrass: 0 to 100 scale (0 no effect, 100 complete control). Summed up: as §2
For test [9], the system named is Foxtail, Giant (giant foxtail, Setaria faberi). The experiment in a line: Test A preemergence, Foxtail, Giant. The note with it: Preemergence; for Plant response rating, Foxtail, Giant: 0 to 100 scale (0 no effect, 100 complete control). The procedure, abridged: as §2
The test system of test [10] is ragweed (common ragweed, Ambrosia artemisiifolia). The experiment in a line: Test A postemergence, ragweed. As to conditions: Postemergence, 0 to 100 scale (0 no effect, 100 complete control). The procedure, abridged:
as §2

In test [11] the test system is corn (Zea mays). Description: Test A postemergence, corn. As to conditions: Postemergence, 0 to 100 scale (0 no effect, 100 complete control). Summed up: as §2
The test system of test [12] is blackgrass (Alopecurus myosuroides). The experiment in a line: Test A postemergence, blackgrass. The note with it: Postemergence, 0 to 100 scale (0 no effect, 100 complete control). Summed up:
as §2

Test [13] concerns pigweed (Amaranthus retroflexus). The experiment in a line: Test A preemergence, pigweed. As to conditions: for Plant response rating, Pigweed: 0 to 100 scale (0 no effect, 100 complete control). Summed up: as §1
Test [14] concerns Ryegrass, Italian (Italian ryegrass, Lolium multiflorum). Description: Test A preemergence, Ryegrass, Italian. The note with it: Preemergence; for Plant response rating, Ryegrass, Italian: 0 to 100 scale (0 no effect, 100 complete control). The procedure, abridged:
as §2

For test [15] the test system is unchanged. Description: Test A postemergence, Ryegrass, Italian. As to conditions: Postemergence, 0 to 100 scale (0 no effect, 100 complete control). The procedure, abridged: as §2
Setting [16] is: 1000 g ai/ha, visual injury, approx. 10 days.
Setting [17] is: 125 g ai/ha, visual injury approx. 10 days.
The mark [18] stands for this setting: 500 g ai/ha, visual injury, approx. 10 days.
Setting [19] is: 125 g ai/ha, visual injury on 0 to 100 scale (0 no effect, 100 complete control), approximately 10 days.

As to `Cc1cc(C)c(N(S(=O)(=O)C(F)(F)F)S(=O)(=O)C(F)(F)F)cc1C(=O)N1CCSCC1` [Compound 5], the “Plant response rating, Wheat” value in test [1] (setting [16]) is 60. In addition, the results for the “Plant response rating, Pigweed” value in test [2] (setting [16]) and in test [13] (1000 g ai/ha) were 80 and 100, respectively. The “Plant response rating, Barnyardgrass” value is reported as 80 in [3] (setting [16]) and 100 in [8] (1000 g ai/ha). Moreover, the “Plant response rating, Galium” value in [4] (setting [16]) was 90. For the same compound, the “Plant response rating, Kochia” value in test [5] (1000 g ai/ha) came out at 90; in test [6] (setting [16]) it was 80. The “Plant response rating, Foxtail, Giant” value was found to be 90 in test [7] (setting [16]) and 100 in test [9] (1000 g ai/ha). Further, the “Plant response rating, Ragweed” value in test [10] (setting [16]) came out at 80. In [11] (setting [16]), the “Plant response rating, Corn” value was found to be 10. Moreover, the “Plant response rating, Blackgrass” value in [12] (setting [16]) turned out to be 0. Also, the “Plant response rating, Ryegrass, Italian” value was found to be 100 in test [14] (1000 g ai/ha) and 30 in test [15] (setting [16]).
As for `Cc1cc(C)c(C(=O)N2CCSCC2)cc1NS(=O)(=O)C(F)(F)F` [Compound 12], the “Plant response rating, Wheat” value in test [1] (setting [16]) came out at 60. Further, the “Plant response rating, Pigweed” value came out at 80 in test [2] (setting [16]) and 100 in test [13] (1000 g ai/ha). Also, the “Plant response rating, Barnyardgrass” value is recorded as 80 in [3] (setting [16]) and 100 in [8] (1000 g ai/ha). Besides, the “Plant response rating, Galium” value in test [4] (setting [16]) turned out to be 90. Moreover, the “Plant response rating, Kochia” value came to 90 in test [5] (1000 g ai/ha) and 70 in [6] (setting [16]). Further, the “Plant response rating, Foxtail, Giant” value is 90 in [7] (setting [16]) and 100 in test [9] (1000 g ai/ha). Also, the “Plant response rating, Ragweed” value in test [10] (setting [16]) worked out at 60. The “Plant response rating, Corn” value in [11] (setting [16]) amounted to 20. Further, in test [12] (setting [16]), the “Plant response rating, Blackgrass” value is on record as 30. In addition, the results for the “Plant response rating, Ryegrass, Italian” value in [14] (1000 g ai/ha) and in test [15] (setting [16]) were 100 and 90, respectively.
In the case of `Cc1cc(C2CC2)c(NS(=O)(=O)C(F)(F)F)cc1C(=O)N1CCOCC1` [Compound 13], the “Plant response rating, Wheat” value in [1] (setting [17]) and in [1] (setting [18]) was 0 throughout. The “Plant response rating, Pigweed” value in [2] (setting [17]) came to 0; in test [2] (setting [18]) it was 20; in [13] (500 g ai/ha) it was 60. Moreover, the “Plant response rating, Barnyardgrass” value is recorded as 0 in [3] (setting [17]), 40 in test [3] (setting [18]) and 100 in test [8] (500 g ai/ha). Also, the entries for the “Plant response rating, Galium” value in test [4] (setting [17]) and in test [4] (setting [18]) were 20 and 30, respectively. The “Kochia plant response rating” value in test [5] (setting [19]) was 20. Also, the “Plant response rating, Kochia” value in test [5] (500 g ai/ha) is 50; in test [6] (setting [17]) it was 0; in [6] (setting [18]), 10. Further, the entries for the “Plant response rating, Foxtail, Giant” value in [7] (setting [17]), in test [7] (setting [18]) and in test [9] (500 g ai/ha) were 0, 10 and 10, respectively. Besides, in test [8] (setting [19]), the “Barnyardgrass plant response rating” value amounted to 60. For the same compound, in [9] (setting [19]), the “Foxtail, Giant plant response rating” value was found to be 0. Further, the entries for the “Plant response rating, Ragweed” value in test [10] (setting [17]) and in [10] (setting [18]) were 10 and 30, respectively. The “Plant response rating, Corn” value in [11] (setting [17]) and in test [11] (setting [18]) was 0 each time. Besides, the “Plant response rating, Blackgrass” value in test [12] (setting [17]) and in test [12] (setting [18]) was 0 in each case. The “Pigweed plant response rating” value in test [13] (setting [19]) stood at 20. In test [14] (setting [19]), the “Ryegrass, Italian plant response rating” value was found to be 20. For the same compound, the “Plant response rating, Ryegrass, Italian” value in test [14] (500 g ai/ha) is 30; in [15] (setting [17]), 0; in test [15] (setting [18]), 0.
